Measurements as given in PubChem BioAssay (NCI).
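Cultured in 96-well plates, cells were exposed to test compound for 48 hours across five concentrations. TGI marks complete inhibition of growth.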

Tests used:
Assay in all cases: DTP human tumour cell line panel, 48 h
[1] = tested on: SNB-75 CNS
[2] = tested on: OVCAR-5 ovarian
[3] = tested on: MDA-N
[4] = tested on: T-47D breast
[5] = tested on: SNB-19 CNS
[6] = tested on: 786-0 renal
[7] = tested on: SF-539 CNS
[8] = tested on: MDA-MB-435
[9] = tested on: RPMI-8226 leukemia
[10] = tested on: HL-60(TB) leukemia
[11] = tested on: HOP-92 NSCLC
[12] = tested on: NCI-H460 lung
[13] = tested on: SK-MEL-5 melanoma
[14] = tested on: OVCAR-3 ovarian
[15] = tested on: UO-31 renal
[16] = tested on: MALME-3M melanoma
[17] = tested on: SK-OV-3 ovarian
[18] = tested on: NCI-H226 lung
[19] = tested on: M14 melanoma
[20] = tested on: MDA-MB-231 breast
[21] = tested on: CAKI-1 renal
[22] = tested on: LOX IMVI melanoma
[23] = tested on: A549 NSCLC
[24] = tested on: SR leukemia
[25] = tested on: HCT-15 colon
[26] = tested on: TK-10 renal
[27] = tested on: HS 578T breast
[28] = tested on: CCRF-CEM leukemia
[29] = tested on: IGROV1 ovarian
[30] = tested on: MOLT-4 leukemia
[31] = tested on: K-562 leukemia
[32] = tested on: UACC-257 melanoma
[33] = tested on: RXF 393 renal
[34] = tested on: SN12C renal
[35] = tested on: SF-268 CNS
[36] = tested on: PC-3 prostate
[37] = tested on: COLO 205 colon
[38] = tested on: HT29 colon
[39] = tested on: OVCAR-4 ovarian
[40] = tested on: A498 renal
[41] = tested on: SK-MEL-28 melanoma
[42] = tested on: NCI/ADR-RES ovarian
[43] = tested on: ACHN renal
[44] = tested on: NCI-H23 lung
[45] = tested on: KM12 colon
[46] = tested on: SW-620 colon
[47] = tested on: OVCAR-8 ovarian
[48] = tested on: U251 CNS
[49] = tested on: DU-145 prostate
[50] = tested on: HOP-62 NSCLC
[51] = tested on: NCI-H522 lung
[52] = tested on: MCF7 breast
[53] = tested on: HCT-116 colon
[54] = tested on: EKVX NSCLC
[55] = tested on: HCC-2998 colon
[56] = tested on: SF-295 CNS
[57] = tested on: UACC-62 melanoma
[58] = tested on: SK-MEL-2 melanoma
[59] = tested on: BT-549 breast

## O=C1O/C(=C(/Cl)c2c3ccccc3cc3ccccc23)c2ccccc21
[1]
  TGI: 36.6 µM
[2]
  TGI: > 100 µM
[3]
  TGI: > 100 µM
[4]
  TGI: > 100 µM
[5]
  TGI: > 100 µM
[6]
  TGI: 40.5 µM
[7]
  TGI: 47.8 µM
[8]
  TGI: 58 µM
[9]
  TGI: 66.4 µM
[10]
  TGI: 22.6 µM
[11]
  TGI: 50.3 µM
[12]
  TGI: > 100 µM
[13]
  TGI: 30.7 µM
[14]
  TGI: 60.9 µM
[15]
  TGI: > 100 µM
[16]
  TGI: > 100 µM
[17]
  TGI: > 100 µM
[18]
  TGI: 73.6 µM
[19]
  TGI: 53.8 µM
[20]
  TGI: 40.3 µM
[21]
  TGI: > 100 µM
[22]
  TGI: 8.04 µM
[23]
  TGI: > 100 µM
[24]
  TGI: 35.6 µM
[25]
  TGI: > 100 µM
[26]
  TGI: > 100 µM
[27]
  TGI: 59.8 µM
[28]
  TGI: 59.1 µM
[29]
  TGI: 71.2 µM
[30]
  TGI: > 100 µM
[31]
  TGI: > 100 µM
[32]
  TGI: > 100 µM
[33]
  TGI: 96.4 µM
[34]
  TGI: > 100 µM
[35]
  TGI: > 100 µM
[36]
  TGI: > 100 µM
[37]
  TGI: 49.2 µM
[38]
  TGI: 43.1 µM
[39]
  TGI: 90.3 µM
[40]
  TGI: 80.2 µM
[41]
  TGI: > 100 µM
[42]
  TGI: > 100 µM
[43]
  TGI: 82.9 µM
[44]
  TGI: 79.9 µM
[45]
  TGI: 17.3 µM
[46]
  TGI: > 100 µM
[47]
  TGI: 69.9 µM
[48]
  TGI: > 100 µM
[49]
  TGI: > 100 µM
[50]
  TGI: 57.8 µM
[51]
  TGI: > 100 µM
[52]
  TGI: > 100 µM
[53]
  TGI: 9.58 µM
[54]
  TGI: > 100 µM
[55]
  TGI: > 100 µM
[56]
  TGI: > 100 µM
[57]
  TGI: > 100 µM
[58]
  TGI: 51.2 µM

## CN(C(=O)c1cc2c(s1)sc1c(=O)n(C)c3ccccc3c12)c1ccccc1
[1]
  TGI: > 100 µM
[2]
  TGI: > 100 µM
[3]
  TGI: > 100 µM
[4]
  TGI: > 100 µM
[5]
  TGI: > 100 µM
[6]
  TGI: > 100 µM
[7]
  TGI: 59.8 µM
[8]
  TGI: > 100 µM
[11]
  TGI: > 100 µM
[12]
  TGI: 83.3 µM
[13]
  TGI: > 100 µM
[14]
  TGI: > 100 µM
[15]
  TGI: 24.5 µM
[16]
  TGI: > 100 µM
[17]
  TGI: > 100 µM
[18]
  TGI: > 100 µM
[19]
  TGI: > 100 µM
[20]
  TGI: > 100 µM
[21]
  TGI: 40.8 µM
[22]
  TGI: > 100 µM
[23]
  TGI: > 100 µM
[24]
  TGI: > 100 µM
[25]
  TGI: > 100 µM
[26]
  TGI: > 100 µM
[28]
  TGI: > 100 µM
[59]
  TGI: > 100 µM
[29]
  TGI: > 100 µM
[30]
  TGI: > 100 µM
[31]
  TGI: > 100 µM
[32]
  TGI: > 100 µM
[33]
  TGI: > 100 µM
[34]
  TGI: > 100 µM
[36]
  TGI: > 100 µM
[37]
  TGI: > 100 µM
[38]
  TGI: > 100 µM
[39]
  TGI: > 100 µM
[41]
  TGI: > 100 µM
[42]
  TGI: 77.1 µM
[43]
  TGI: 66.6 µM
[44]
  TGI: 69.5 µM
[45]
  TGI: > 100 µM
[47]
  TGI: > 100 µM
[48]
  TGI: > 100 µM
[49]
  TGI: > 100 µM
[51]
  TGI: > 100 µM
[52]
  TGI: > 100 µM
[53]
  TGI: > 100 µM
[54]
  TGI: > 100 µM
[55]
  TGI: > 100 µM
[56]
  TGI: > 100 µM
[57]
  TGI: > 100 µM
[58]
  TGI: > 100 µM

## COc1ccc2oc(=O)c(-c3csc(-c4ccccc4)n3)cc2c1
[1]
  TGI: 71.7 µM
[2]
  TGI: > 100 µM
[3]
  TGI: > 100 µM
[4]
  TGI: > 100 µM
[5]
  TGI: 45 µM
[6]
  TGI: 34.3 µM
[7]
  TGI: 31.2 µM
[8]
  TGI: > 100 µM
[9]
  TGI: > 100 µM
[10]
  TGI: > 100 µM
[11]
  TGI: 56 µM
[12]
  TGI: > 100 µM
[13]
  TGI: > 100 µM
[15]
  TGI: 47.1 µM
[17]
  TGI: 38 µM
[18]
  TGI: > 100 µM
[19]
  TGI: > 100 µM
[20]
  TGI: > 100 µM
[21]
  TGI: > 100 µM
[22]
  TGI: > 100 µM
[23]
  TGI: > 100 µM
[24]
  TGI: > 100 µM
[25]
  TGI: > 100 µM
[26]
  TGI: 50.6 µM
[27]
  TGI: 94.5 µM
[28]
  TGI: > 100 µM
[59]
  TGI: 50.2 µM
[29]
  TGI: > 100 µM
[30]
  TGI: > 100 µM
[31]
  TGI: > 100 µM
[32]
  TGI: > 100 µM
[33]
  TGI: 59.3 µM
[35]
  TGI: 71.2 µM
[36]
  TGI: > 100 µM
[37]
  TGI: > 100 µM
[38]
  TGI: > 100 µM
[39]
  TGI: 97.9 µM
[41]
  TGI: > 100 µM
[43]
  TGI: > 100 µM
[45]
  TGI: > 100 µM
[46]
  TGI: > 100 µM
[48]
  TGI: 52.4 µM
[49]
  TGI: > 100 µM
[50]
  TGI: 34.3 µM
[52]
  TGI: > 100 µM
[53]
  TGI: > 100 µM
[54]
  TGI: > 100 µM
[55]
  TGI: > 100 µM
[56]
  TGI: 53.6 µM
[57]
  TGI: > 100 µM
[58]
  TGI: > 100 µM

## COCCNC1CCC(=O)c2[nH]c3ccccc3c21 (configuration not stated)
[1]
  TGI: > 100 µM
[2]
  TGI: > 100 µM
[3]
  TGI: > 100 µM
[5]
  TGI: > 100 µM
[6]
  TGI: > 100 µM
[7]
  TGI: > 100 µM
[8]
  TGI: > 100 µM
[9]
  TGI: > 100 µM
[10]
  TGI: > 100 µM
[11]
  TGI: > 100 µM
[12]
  TGI: > 100 µM
[13]
  TGI: > 100 µM
[14]
  TGI: > 100 µM
[15]
  TGI: > 100 µM
[16]
  TGI: > 100 µM
[18]
  TGI: > 100 µM
[19]
  TGI: > 100 µM
[20]
  TGI: > 100 µM
[21]
  TGI: > 100 µM
[22]
  TGI: > 100 µM
[23]
  TGI: > 100 µM
[24]
  TGI: > 100 µM
[25]
  TGI: > 100 µM
[26]
  TGI: > 100 µM
[27]
  TGI: > 100 µM
[28]
  TGI: > 100 µM
[59]
  TGI: > 100 µM
[29]
  TGI: > 100 µM
[30]
  TGI: > 100 µM
[31]
  TGI: > 100 µM
[32]
  TGI: > 100 µM
[33]
  TGI: > 100 µM
[34]
  TGI: > 100 µM
[35]
  TGI: > 100 µM
[36]
  TGI: > 100 µM
[37]
  TGI: > 100 µM
[38]
  TGI: > 100 µM
[39]
  TGI: > 100 µM
[40]
  TGI: > 100 µM
[41]
  TGI: > 100 µM
[42]
  TGI: > 100 µM
[43]
  TGI: > 100 µM
[44]
  TGI: > 100 µM
[45]
  TGI: > 100 µM
[46]
  TGI: > 100 µM
[47]
  TGI: > 100 µM
[48]
  TGI: > 100 µM
[49]
  TGI: > 100 µM
[50]
  TGI: > 100 µM
[51]
  TGI: > 100 µM
[52]
  TGI: > 100 µM
[53]
  TGI: > 100 µM
[54]
  TGI: > 100 µM
[55]
  TGI: > 100 µM
[56]
  TGI: > 100 µM
[58]
  TGI: > 100 µM
